What is called MIC is the smallest concentration in the dilution series that meets the test's criterion for growth inhibition.

SMILES strings stand for the structures. Read-outs that look alike come from different tables or passages of the source. Some results are limits rather than exact numbers.

The source of these data is patent US12378211B2, “Carbonic anhydrase inhibitors and antibiotics against multidrug resistant bacteria” (Purdue Research Foundation, priority 2018, dated 2025).

Series [1] concerns Enterococcus faecium E417-HM-965. The series is described as follows: MIC of CAIs in BHIB and TSB. In kind it is cell-based. The settings on record: Enterococcus faecium, read-out: MIC. The procedure, abridged: (§1)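 Broth microdilution per CLSI guidelines, with inoculum about 5×10^5 CFU/mL prepared from 0.5 McFarland suspensions in TSB or BHIB. Compounds were serially diluted and plates incubated aerobically at 37° C for 18-20 hours. MIC was the lowest concentration giving complete inhibition of visible growth.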

The test system of series [2] is Enterococcus faecium Patient #2-1-NR-31909. The series is described as follows: MIC of CAIs in BHIB and TSB. To be noted: Enterococcus faecium, read-out: MIC. It counts as cell-based. The procedure, abridged:
as §1

In series [3] the test system is Enterococcus fecalis Strain SF 24397 NR31970. Briefly: MIC of CAIs in BHIB and TSB. It counts as cell-based. To be noted: Enterococcus, read-out: MIC. In short, it runs like this: as §1
Series [4] has as its system Enterococcus faecalis—S613 HM-334. The series is described as follows: MIC of CAIs in BHIB and TSB. It counts as cell-based. The settings on record: Enterococcus, read-out: MIC. The procedure, abridged:
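Broth microdilution per CLSI in TSB or BHIB, inoculum about 5×10^5 CFU/mL from 0.5 McFarland suspension, serial two-fold compound dilutions. Incubated aerobically at 37° C for 18-20 h; MIC is the lowest concentration completely inhibiting visible growth.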

Series [5] has as its system vancomycin-resistant E. faecium. The series is described as follows: Mouse model of GI colonization by VRE. In kind it is in vivo, C57BL/6 mice. From the text:
Feasibility in vivo study: AZM reduces VRE load in the intestines and faeces. The promising feature, and the specific and potent antimicrobial activity of CAIs, prompted us to evaluate the in vivo efficacy of AZM in our established mouse model of GI colonization by enterococci with features that mimic the antibiotic-induced enterococcal expansion observed in humans (Mohammad, H. et al., Int J Antimicrob Agents 2018, 51, 897-904; Abdelkhalek, A, et al., PLoS One 2018, 13, e0199710). We tested AZM (two clinical doses 10 and 20 mg/kg) in female 12-week-old C57BL/6 mice (n=5 mice per group) that were sensitized with ampicillin ([…] in drinking water) for 7 days to reduce the microbiota present in the gastrointestinal tract and colonized with 10^8 CFU/mL of vancomycin-resistant E. faecium.
We thought that the rapid absorption of AZM from the gastrointestinal tract would limit their exposure time to VRE present in the gastrointestinal tract.
Mice were treated for 8 days with 10 mg/kg of drugs by oral gavage.

For series [6], the system named is E. faecium NR 31909. To be noted: oral 20 mg/kg daily for 4 days. From the text: Saline was used as a negative control. Mice were euthanized on day 5 and organs (liver, spleen and kidneys) were aseptically removed and homogenized, and viable VRE were enumerated by serial dilution and plating.
The conditions of series [7]: cited from earlier work.
For series [8] the following is noted: cited from earlier work. This is another data set of the same source.

As for `CC(=O)Nc1nnc(S(N)(=O)=O)s1` [Acetazolamide, reference compound], the MIC was 8 mg/L in series [1] (E417HM965, BHIB); 2 mg/L in series [1] (E417HM965, TSB, Table 5); 64 mg/L in series [2] (BHIB); 2 mg/L in series [2] (TSB, Table 5); greater than 128 mg/L in series [3] (BHIB); 2 mg/L in series [3] (TSB, Table 5). Further, the MIC was greater than 128 mg/L in series [4] (BHIIB) and 2 mg/L in series [4] (TSB, Table 5). Moreover, the “VRE decolonization compared with linezolid” value in series [5] (AZM 10 and 20 mg/kg, linezolid 10 mg/kg once daily for 8 days) is “outperformed linezolid”. Further, in series [5] (once a day at 10 mg/kg or 20 mg/kg, feces as early as 3rd day), the “VRE in feces, cecal content and ileal content compared to control mice” value was “significant reduction”. The “mice protected against a lethal dose (survival)” value in series [6] (from two hours after challenge) amounted to 100%. Besides, the “reduction of bacterial load in internal organs” value in series [6] (liver, spleen, kidneys on day 5) is on record as “superior to linezolid”. In series [7] (after oral administration), the “time to peak plasma concentrations” value is 1 to 3 h. Besides, the serum concentration in series [7] (after single oral dose) is 20 to 100 µg/mL. Also, in series [8], the “oral LD50 (mouse)” value is reported as 4300 mg/kg.
In the case of `CC(=O)NC[C@H]1CN(c2ccc(N3CCOCC3)c(F)c2)C(=O)O1` [Linezolid, reference compound], the MIC in series [3] (TSB, Table 5) is 1 mg/L; in series [4] (BHIIB) it was 1 mg/L; in series [4] (TSB, Table 5), 1 mg/L.
